Patent US8114991B2, “Amino-1,3,5-triazines N-substituted with chiral bicyclic radicals, process for their preparation, compositions thereof, and their use as herbicides and plant growth regulators” (Bayer Cropscience AG, priority 2003, dated 2012)

What was measured:
[1] = system: harmful plants such as Stellaria media, Lolium multiforum, Amaranthus retroflexus, Sinapis alba, Avena sativa and Setaria viridis; experiment: Pre-emergence effect on weeds (greenhouse pot test); format: in vivo; details: application rate of 1 kg or less of active ingredient per hectare; scored after 3 to 4 weeks by comparison with untreated controls
Source text: Seeds or rhizome pieces of monocotyledonous and dicotyledonous weed plants were placed in sandy loam in plastic pots and covered with soil. The compounds according to the invention, which were formulated in the form of wettable powders or emulsion concentrates, were then applied to the surface of the soil cover as aqueous suspension or emulsion at various dosages with an application rate of 600 to 800 l of water per ha (converted).
After the treatment, the pots were placed into a greenhouse and kept under good growth conditions for the weeds. The plant or emergence damage was scored visually after the test plants have emerged after an experimental time of 3 to 4 weeks by comparison with untreated controls.

[2] = system: harmful plants such as Sinapis alba, Echinochloa crus-galli, Lolium multiflorum, Stellaria media, Cyperus iria, Amaranthus retroflexus, Setaria viridis, Avena …; experiment: Post-emergence effect on weeds (greenhouse pot test); format: in vivo; details: application rate of 2 kg or less of active ingredient per hectare; treated in the three-leaf stage; scored after approx. 3 to 4 weeks by comparison with untreated controls

| Structure (SMILES) | pre-emergence control of harmful plants (plant or emergence damage scored visually) [1] | herbicidal post-emergence activity against harmful plants (scored visually) [2] |
| --- | --- | --- |
| CCc1nc(N)nc(N[C@@H]2CCc3ccc(F)cc32)n1 [Compound 8.26] | very good pre-emergence control | very good herbicidal post-emergence activity |
| CCc1nc(N)nc(N[C@@H]2CCCc3ccccc32)n1 [Compound 8.34] | very good pre-emergence control | very good herbicidal post-emergence activity |
| CCc1nc(N)nc(N[C@@H]2CCCc3ccc(C)cc32)n1 [Compound 8.35] | very good pre-emergence control | very good herbicidal post-emergence activity |
| CCc1nc(N)nc(N[C@@H]2CCCc3c(C)cc(C)cc32)n1 [Compound 8.38] | very good pre-emergence control | very good herbicidal post-emergence activity |
| CCc1nc(N)nc(N[C@@H]2CCOc3ccc(C)cc32)n1 [Compound 8.44] | very good pre-emergence control | very good herbicidal post-emergence activity |
| CCCc1nc(N)nc(N[C@@H]2CCc3ccc(C)cc32)n1 [Compound 8.48] | very good pre-emergence control | very good herbicidal post-emergence activity |
| CCCc1nc(N)nc(N[C@@H]2CCc3ccc(F)cc32)n1 [Compound 8.49] | very good pre-emergence control | very good herbicidal post-emergence activity |
| CCCc1nc(N)nc(N[C@@H]2CCCc3ccc(C)cc32)n1 [Compound 8.58] | very good pre-emergence control | very good herbicidal post-emergence activity |
| CCCc1nc(N)nc(N[C@@H]2CCCc3c(C)cc(C)cc32)n1 [Compound 8.61] | very good pre-emergence control | very good herbicidal post-emergence activity |
| Cc1ccc2c(c1)[C@H](Nc1nc(N)nc(C(C)C)n1)CC2 [Compound 8.67] | very good pre-emergence control | very good herbicidal post-emergence activity |
| CC(C)c1nc(N)nc(N[C@@H]2CCc3ccc(F)cc32)n1 [Compound 8.68] | very good pre-emergence control | very good herbicidal post-emergence activity |
| Cc1ccc2c(c1)[C@H](Nc1nc(N)nc(C(C)C)n1)CCC2 [Compound 8.71] | very good pre-emergence control | very good herbicidal post-emergence activity |
| Cc1ccc2c(c1)[C@H](Nc1nc(N)nc(C(C)C)n1)CCO2 [Compound 8.75] | very good pre-emergence control | very good herbicidal post-emergence activity |
| Cc1ccc2c(c1)[C@H](Nc1nc(N)nc(C(C)(Cl)Cl)n1)CC2 [Compound 8.79] | very good pre-emergence control | very good herbicidal post-emergence activity |
| Nc1nc(CF)nc(N[C@@H]2CCc3ccccc32)n1 [Compound 8.90] | very good pre-emergence control | very good herbicidal post-emergence activity |
| Nc1nc(CF)nc(N[C@@H]2CCCc3ccccc32)n1 [Compound 8.100] | very good pre-emergence control | very good herbicidal post-emergence activity |
| Nc1nc(CCl)nc(N[C@@H]2CCc3ccccc32)n1 [Compound 8.113] | very good pre-emergence control | very good herbicidal post-emergence activity |
| Nc1nc(CCl)nc(N[C@@H]2CCCc3ccccc32)n1 [Compound 8.117] | very good pre-emergence control | very good herbicidal post-emergence activity |
| CC1(c2nc(N)nc(N[C@@H]3CCc4ccccc43)n2)CC1 [Compound 8.148] | very good pre-emergence control | very good herbicidal post-emergence activity |

| Structure (SMILES) | pre-emergence control of harmful plants (plant or emergence damage scored visually) [1] | herbicidal post-emergence activity against harmful plants (scored visually) [2] |
| --- | --- | --- |
| CC1(c2nc(N)nc(N[C@@H]3CCCc4ccccc43)n2)CC1 [Compound 8.152] | very good pre-emergence control | very good herbicidal post-emergence activity |
| Nc1nc(N[C@@H]2CCc3ccccc32)nc(C2(F)CC2)n1 [Compound 8.160] | very good pre-emergence control | very good herbicidal post-emergence activity |
| Nc1nc(N[C@@H]2CCCc3ccccc32)nc(C2(F)CC2)n1 [Compound 8.170] | very good pre-emergence control | very good herbicidal post-emergence activity |
| Nc1nc(N[C@@H]2CCc3ccccc32)nc(C2(Cl)CC2)n1 [Compound 8.183] | very good pre-emergence control | very good herbicidal post-emergence activity |
| Nc1nc(N[C@@H]2CCCc3ccccc32)nc(C2(Cl)CC2)n1 [Compound 8.187] | very good pre-emergence control | very good herbicidal post-emergence activity |
| CC(C)(F)c1nc(N)nc(N[C@@H]2CCc3ccccc32)n1 [Compound 8.195] | very good pre-emergence control | very good herbicidal post-emergence activity |
| Cc1ccc2c(c1)[C@H](Nc1nc(N)nc(C(C)(C)F)n1)CC2 [Compound 8.196] | very good pre-emergence control | very good herbicidal post-emergence activity |
| CC(C)(F)c1nc(N)nc(N[C@@H]2CCc3ccc(F)cc32)n1 [Compound 8.197] | very good pre-emergence control | very good herbicidal post-emergence activity |
| Cc1cc2c(cc1C)[C@H](Nc1nc(N)nc(C(C)(C)F)n1)CC2 [Compound 8.201] | very good pre-emergence control | very good herbicidal post-emergence activity |
| CC(C)(F)c1nc(N)nc(N[C@@H]2CCCc3ccccc32)n1 [Compound 8.205] | very good pre-emergence control | very good herbicidal post-emergence activity |
| Cc1ccc2c(c1)[C@H](Nc1nc(N)nc(C(C)(C)F)n1)CCC2 [Compound 8.206] | very good pre-emergence control | very good herbicidal post-emergence activity |
| Cc1cc(C)c2c(c1)[C@H](Nc1nc(N)nc(C(C)(C)F)n1)CCC2 [Compound 8.209] | very good pre-emergence control | very good herbicidal post-emergence activity |
| Cc1ccc2c(c1)[C@H](Nc1nc(N)nc(C(C)(C)F)n1)CCO2 [Compound 8.215] | very good pre-emergence control | very good herbicidal post-emergence activity |
| Cc1ccc2c(c1)[C@H](Nc1nc(N)nc(C(C)(C)Cl)n1)CC2 [Compound 8.219] | very good pre-emergence control | very good herbicidal post-emergence activity |
| CCCc1nc(N)nc(N[C@@H]2CCOc3ccc(C)cc32)n1 [Compound 8.231] | very good pre-emergence control | very good herbicidal post-emergence activity |
| COCc1nc(N)nc(N[C@@H]2CCc3ccccc32)n1 [Compound 8.233] | very good pre-emergence control | very good herbicidal post-emergence activity |
| COCc1nc(N)nc(N[C@@H]2CCCc3ccccc32)n1 [Compound 8.234] | very good pre-emergence control | very good herbicidal post-emergence activity |
| CC(C)(F)c1nc(N)nc(N[C@@H]2CCOc3c(F)cccc32)n1 [Compound 8.237] | very good pre-emergence control | very good herbicidal post-emergence activity |
